Source: patent publication US9908896B2, “P38 and JNK MAPK inhibitors for the treatment and prophylaxis of degenerative diseases of the nervous system” (ALLINKY BIOPHARMA, priority 2014, dated 2018)

Tested on: Aβ25-35-induced learning deficits
Experiment: Novel object recognition after i.c.v. Aβ25-35 injection
Assay type: in vivo, male Sprague Dawley rats
Conditions: 10 mg/kg i.v. once a day
Protocol: The purpose of the study was to determine whether the test compound 1 can alleviate the pathology produced in rats by the acute intracerebroventricular (i.c.v) injection of an oligomeric Aβ25-35 peptide preparation. The compound efficacy was evaluated 7 days after the peptide administration, on: • the attenuation of the Aβ25-35-induced learning deficits (recognition long-term memory: novel object recognition); • the attenuation of the Aβ25-35-induced Aβ^1-42 accumulation in the rat hippocampus. One administration procedure was examined: the compound 1 (10 mg/kg) administered intraveinously (i.v.) once a day during 9 days. […] On day 8 and 9, the recognition long-term memory of the animals was assessed using the novel object recognition (NOR) procedure. […] Each rat was placed in the open-field and the exploratory activity recorded during a 10-min duration session. The activity was analyzed using the Nosetrack® protocol (Viewpoint), in terms of number of contact with objects and duration of contacts. […] Each rat was placed again in the open-field and the exploratory activity recorded during a 10-min duration session. The activity was analyzed similarly. The preferential exploration index was calculated as the ratio of the number (or duration) of contacts with the object in position #1 over the total number for duration) of contacts with the two objects. […]

CCCOc1ccc(Nc2nc3nonc3nc2N2CCC(Oc3ccc(Cl)cc3)CC2)cc1 [Comp 1]
Object preference in session 2 (contacts and duration of contacts) (day 8, two identical objects, vs no preference level): higher than 50%
Novel object preference in session 3 (number and duration of contacts) (day 9, vs 50% level): alleviated the impairments
